Measured values reported in patent US20040110253A1, “Method for identifying MHC-presented peptide epitopes for T cells” (priority 2002, published 2004).

Legend:
B3K-06 TCR = assay: Binding of fluorescent soluble B3K-06 αβTCR to SF9 cells displaying IA^b-peptide (flow cytometry); parameters: species or system mouse
Method: (§1) Next fluorescent, soluble αβTCR reagents were prepared for use in flow cytometry to detect insect cells displaying the appropriate MHCII/peptide combination. Fluorescent multivalent versions of the soluble αβTCR's of B3K-06 and YAe-62 bound to insect cells displaying the IA^b-p3K, but not a control MHCII-peptide combination (data not shown).
(§2) Insect cells displaying IA^b-p3K bound the αβTCR reagents very heterogeneously, probably due to heterogeneous expression of IA^b-p3K due to variations in the multiplicity of infection and the lack of synchrony in viral infection and expression. […] In this case, there was a direct correlation between the amount of surface IA^b-p3K expressed by an individual insect cell and the amount of αβTCR bound with cells bearing a particular level of IA^b-p3K binding the αβTCRs uniformly (data not shown). Therefore, comparing the two types of staining gave a useful tool to evaluate the relation between peptide sequence and the strength of αβTCR binding (see below).
(§3) A large number of SF9 insect cells were infected at an MOI of about one with baculovirus carrying the IA^b peptide library. After 3-4 days the cells were analyzed with fluorescent B3K-06 or YAe-62 soluble αβTCR, as described above. Fluorescent cells were sorted and cultured with fresh uninfected SF9 cells to create new infected cells for analysis and an enriched viral stock. This process was repeated 3 to 4 times. In each case, when no clear fluorescent population was apparent, the brightest 1% of the infected cells was sorted. In later rounds, the majority of the cells in a clearly distinguishable fluorescent population were sorted. Infected cells binding the B3K-06 αβTCR were apparent only after two rounds of enrichment but eventually yielded a population with uniform binding (data not shown). Infected cells that bound the YAe-62 αβTCR were detectable even with the initial library of viruses and enriched rapidly to yield a population with more heterogeneous levels of binding to the receptor (data not shown).
(§4) At the time of the final enrichment, single infected cells binding each of αβTCRs were sorted into individual wells of 96 well culture plates containing fresh SF9 cells in order to prepare clonal viral stocks. These stocks were used to infect fresh SF9 cells which were reanalyzed for binding to the appropriate αβTCR as described above. […] The majority of PCR fragments yielded a single unambiguous peptide sequence. These viruses were used to infect SF9 cells that expressed mouse ICAM and B7.1. The infected cells were used as APCs for either the B3K-06 or YAe-62 hybridoma with IL-2 production being a measure of IA^b-peptide recognition. Viruses expressing IA^b-peptide combinations that neither bound to the αβTCR nor stimulated the T cell hybridomas were used as negative controls and virus producing IA^b-p3K was used as the positive control. Results with a few representative virus clones are shown in FIG. 10A and 10B, and a summary of all of the results are shown in Table 1.

B3K-06 hybridoma = assay: IL-2 production by B3K-06 T cell hybridoma in response to IA^b-peptide presenting APCs; format: cell-based, mouse
Source text: The hybridoma, B3K-06 was produced from wild-type C57BL/6 mice immunized conventionally with the peptide (Rees et al., 1999, supra). […] Also, as is commonly seen with conventional T cells, the interaction of the αβ TcR of B3K-06 with IA^b-p3K is very sensitive to changes in any of the peptide amino acids exposed on the surface of the IA^b-p3K complex. Mutation of positions Q2, K3, K5, N7 or K8 to alanine virtually eliminates recognition of p3K by B3K-06 (Liu et al., 2002, supra and additional data not shown).
as §4

YAe-62 TCR = assay: Binding of fluorescent soluble YAe-62 αβTCR to SF9 cells displaying IA^b-peptide (flow cytometry); parameters: species or system mouse
Method: as §1, §2, §3, §4

YAe-62 hybridoma = assay: IL-2 production by YAe-62 T cell hybridoma in response to IA^b-peptide presenting APCs; format: cell-based, mouse
Source text: The mouse T cell hybridoma, referred to as YAe-62, was chosen as a representative of broadly reactive T cells present in mice carrying transgenes and gene knockouts that lead to expression of MHC Class II that are almost completely occupied by a single peptide (Ignatowicz et al., 1996, Cell 84:521-529). The T cell was produced by immunization with p3K bound to IA^b in mice that express IA^b covalently linked to Eα, a dominant IA^b binding peptide derived from the MHC Class II IEα chain. YAe-62 responds to IA^b-p3K, but not to APCs lacking MHC Class II or to the IA^b-pEα APCs from the mouse from which it was derived. YAe-62 is also reactive against many cell types bearing IA^b in the absence of p3K. It also responds to APCs from a variety of mice carrying other alleles of IA. The inventors have postulated that this T cell responds mainly to the evolutionarily conserved regions of the IA molecule with less dependence on the peptide than seen with conventional T cells (Marrack et al., 2001, J. Immunol. 167:617-621). […] From the X-ray crystal structure of IA^b (Liu et al., 2002, supra) enough was known about how peptides bind to this MHC molecule to design a strategy in which the major MHC anchor amino acids of the peptide could be held constant and only five surface exposed amino acids need be varied in the library (FIG. 8).
as §4

IA^b = target: T1, IA^b (Mus musculus, UniProt P14434+P14483); details: Rees et al., 1999; cited from earlier work
T1 sequence (P14434 24-256): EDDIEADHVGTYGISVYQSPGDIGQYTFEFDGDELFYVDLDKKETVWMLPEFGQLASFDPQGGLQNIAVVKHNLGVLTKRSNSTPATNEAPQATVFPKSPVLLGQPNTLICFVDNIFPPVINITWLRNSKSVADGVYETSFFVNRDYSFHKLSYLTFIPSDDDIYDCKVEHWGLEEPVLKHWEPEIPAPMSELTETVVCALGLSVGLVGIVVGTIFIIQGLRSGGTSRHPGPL
T1 sequence (P14483 28-265): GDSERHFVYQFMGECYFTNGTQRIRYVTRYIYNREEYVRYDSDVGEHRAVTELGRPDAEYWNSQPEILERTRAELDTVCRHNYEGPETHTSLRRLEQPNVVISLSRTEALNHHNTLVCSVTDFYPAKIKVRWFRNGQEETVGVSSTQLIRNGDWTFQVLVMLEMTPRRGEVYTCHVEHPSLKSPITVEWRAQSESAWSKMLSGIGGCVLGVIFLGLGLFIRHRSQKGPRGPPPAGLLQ

T cell 3DT-52.5 [1] = assay: IL-2 production by T cell 3DT-52.5 in response to infected SF9 cells expressing D^d tethered to peptide; format: cell-based, mouse; details: infected insect cells expressing D^d bearing the peptide as APCs
Source text: FIG. 14A is a graph showing IL-2 produced by T cell 3DT-52.5 in response to ICAM+/B7+ SF9 cells infected with baculovirus expressing D^d tethered to either pHIV or the αβTCR identified peptide, TGPTRWCRL (SEQ ID NO:50).
To screen the library, soluble a αβTCR were produced from a mouse T cell specific for D^d plus an unknown self-peptide (Endres et al., 1983, J Immunol 131:1656-1662). A multimeric, fluorescent version of the αβTCR was produced as described for MHCII specific αβTCRs. SF9 cells, infected with the library at a multiplicity of infection (MOI) of <1, were analyzed for binding of the fluorescent αβTCR (data not shown). Although no clearly fluorescent population of cells was seen, of those with good surface D^d expression, the 1% of the cells with the brightest fluorescence were sorted and cultured with fresh insect cells to expand the virus. This type of enrichment was repeated six times, producing a clear population of infected cells was detected that bound the αβTCR (data not shown). The infected cells were cloned with fresh insect cells to prepare clonal viral stocks. These stocks were re-tested for encoding a D^d-peptide combination that bound the αβTCR.
DNA from a number of these clones was sequenced through the region encoding the peptide to determine the peptide sequence. […]

T cell 3DT-52.5 [2] = assay: IL-2 production by T cell 3DT-52.5 in response to LKD8 cells plus synthetic peptide; format: cell-based, mouse; details: synthetic peptide 100 ug/ml, D^d expressing Tap deficient cell line, twenty four hours
Source text: FIG. 14B is a graph showing IL-2 produced by T cell […] in response to (1) P815 plus a bound unknown self-peptide and 2) LKD8, alone, or in the presence of the library derived peptide, TGPTRWCRL (SEQ ID NO:50), or a peptide derived from the spin protein, AGATRWCRL (SEQ ID NO:51).
DNA from a number of these clones was sequenced through the region encoding the peptide to determine the peptide sequence. Only one sequence was found, a 9mer, TGPTRWCRL (represented by SEQ ID NO:50; the underlined amino acids are in the positions varied in the library). […] A search of the mouse genome for proteins that contained peptides similar to the library peptide yielded a very similar sequence (AGATRWCRL; SEQ ID NO:51) intheprotein, spin(GenBank Accession No. BC011467). The library peptide and the spin peptide were synthesized and tested with a D^d expressing, Tap deficient, cell line for recognition by the original T cell (FIG. 14B). […] In the case of LKD8 the cell line was tested alone or in the presence of 100 ug/ml of the library derived peptide, TGPTRWCRL (SEQ ID NO:50), or a peptide derived from the spin protein, AGATRWCRL (SEQ ID NO:51). After twenty four hours the culture supernatants were assayed for IL-2. Without an added peptide, the D^d on this cell line was not recognized because the Tap deficiency prevents loading of endogenous peptides.

[3] = target: IA^b-p3K displayed on baculovirus-infected SF9 insect cells (mouse; baculovirus); assay: flow cytometry, fluorescent multivalent soluble TCR on infected SF9 cells
[4] = target: IA^b-pEα displayed on baculovirus-infected SF9 insect cells (mouse; baculovirus); assay: as above
[5] = target: IA^b-… displayed on baculovirus-infected SF9 insect cells (mouse; baculovirus); assay: as above
[6] = target: IA^b-… (SEQ ID NO:25) displayed on baculovirus-infected SF9 insect cells (mouse; baculovirus); assay: as above
[7] = target: IA^b-… (SEQ ID NO:26) displayed on baculovirus-infected SF9 insect cells (mouse; baculovirus); assay: as above
[8] = IA^b-peptide displayed on baculovirus-infected SF9 cells, fluorescent soluble αβTCR
[9] = insect cells displaying IA^b-peptide

## F E A Q K A K A N K A V (FEAQKAKANKAV; synthetic peptide motif) [p3K, positive control]
B3K-06 TCR; [8]
  B3K-06 TCR Binding (% of p3K): 100.0 % of p3K
B3K-06 TCR; [9]
  binding of B3K-06 αβTCR to IA^b-peptide complex (in words): bound
B3K-06 hybridoma; B3K-06 hybridoma, infected SF9 cells expressing mouse ICAM and B7.1 as APCs
  IL-2 Production (units/ml): 3500 units/ml
B3K-06 hybridoma; IA^b-expressing APCs, data not shown
  response of B3K-06 to IA^b-expressing APCs plus peptide: responds to IA^b-expressing APCs in the presence, but not in the absence of the peptide
YAe-62 TCR; [8]
  YAe-62 TCR Binding (% of p3K): 100.0 % of p3K
YAe-62 TCR; [9]
  binding of YAe-62 αβTCR to IA^b-peptide complex (in words): bound
YAe-62 hybridoma; APCs bearing IA^b-peptide
  response of YAe-62 to IA^b-peptide APCs: responds
YAe-62 hybridoma; YAe-62 hybridoma, infected SF9 cells expressing mouse ICAM and B7.1 as APCs
  IL-2 Production (units/ml): 205 units/ml
IA^b
  binding of peptide to IA^b: binds well

## TGPTRWCRL (synthetic peptide motif) [9mer D^d library derived peptide identified with the αβTCR of 3DT-52.5]
T cell 3DT-52.5 [1]
  stimulation of IL-2 production from the original T cell donor of the αβTCR: specifically stimulated IL-2 production
T cell 3DT-52.5 [2]
  restoration of the ability of LKD8 cells to stimulate the T cells (IL-2): restored the ability of the cells to stimulate the T cells

## soluble αβTCR of B3K-06, fluorescent multivalent version
[3]
  TCR Binding (% of p3K): 100 % of p3K
[4]
  TCR Binding (% of p3K): 0.4 % of p3K
[5]
  TCR Binding (% of p3K): 66.8 % of p3K

## soluble αβTCR of YAe-62, fluorescent multivalent version
[3]
  TCR Binding (% of p3K): 100 % of p3K
[4]
  TCR Binding (% of p3K): 0.3 % of p3K
[6]
  TCR Binding (% of p3K): 58.3 % of p3K
[7]
  TCR Binding (% of p3K): 54.9 % of p3K
